Source: ChEMBL document CHEMBL3526033, “Identification of human liver cytochrome P450 enzymes involved in the metabolism of SCH 530348 (Vorapaxar), a potent oral thrombin protease-activated receptor 1 antagonist” (Drug Metab Dispos, 2011)

Assays:
[1] = target: T1, Cytochrome P450 2J2 (Homo sapiens, UniProt P51589); experiment: Drug metabolism in human liver microsomes assessed as CYP2J2-mediated (3R,3aS,4S,4aR,7R,8aR,9aR)-7-amino-4-((E)-2-(5-(3-fluorophenyl)pyridin-2-yl)vinyl)-3-methyldecahydronaphtho[2,3-c]furan-1(3H)-one formation at 25 uM after 120 mins by LC-MS/MS analysis; format: ADME; conditions: 2 h
T1 sequence (P51589 whole entry): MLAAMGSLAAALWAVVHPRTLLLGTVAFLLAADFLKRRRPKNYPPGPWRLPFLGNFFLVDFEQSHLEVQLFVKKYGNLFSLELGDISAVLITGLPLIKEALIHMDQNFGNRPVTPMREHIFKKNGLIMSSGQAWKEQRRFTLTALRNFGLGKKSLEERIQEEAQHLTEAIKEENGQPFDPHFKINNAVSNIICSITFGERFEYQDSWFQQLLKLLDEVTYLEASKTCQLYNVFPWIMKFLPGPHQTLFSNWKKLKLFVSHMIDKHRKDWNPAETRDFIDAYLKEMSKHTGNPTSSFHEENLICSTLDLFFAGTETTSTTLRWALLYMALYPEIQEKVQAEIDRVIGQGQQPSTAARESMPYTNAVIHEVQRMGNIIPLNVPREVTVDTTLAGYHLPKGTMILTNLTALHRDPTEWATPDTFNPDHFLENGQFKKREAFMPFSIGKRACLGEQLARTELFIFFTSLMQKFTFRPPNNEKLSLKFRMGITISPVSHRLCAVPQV

[2] = target: Cytochrome P450 4A11 (Homo sapiens, UniProt Q02928); experiment: Activity of human recombinant CYP4A11 assessed as enzyme-mediated drug metabolism treated with 25 uM vorapaxar after 120 mins by LC-MS/MS analysis in presence of NADPH; format: ADME; conditions: 2 h
Chain of Cytochrome P450 4A11 (Q02928 whole entry): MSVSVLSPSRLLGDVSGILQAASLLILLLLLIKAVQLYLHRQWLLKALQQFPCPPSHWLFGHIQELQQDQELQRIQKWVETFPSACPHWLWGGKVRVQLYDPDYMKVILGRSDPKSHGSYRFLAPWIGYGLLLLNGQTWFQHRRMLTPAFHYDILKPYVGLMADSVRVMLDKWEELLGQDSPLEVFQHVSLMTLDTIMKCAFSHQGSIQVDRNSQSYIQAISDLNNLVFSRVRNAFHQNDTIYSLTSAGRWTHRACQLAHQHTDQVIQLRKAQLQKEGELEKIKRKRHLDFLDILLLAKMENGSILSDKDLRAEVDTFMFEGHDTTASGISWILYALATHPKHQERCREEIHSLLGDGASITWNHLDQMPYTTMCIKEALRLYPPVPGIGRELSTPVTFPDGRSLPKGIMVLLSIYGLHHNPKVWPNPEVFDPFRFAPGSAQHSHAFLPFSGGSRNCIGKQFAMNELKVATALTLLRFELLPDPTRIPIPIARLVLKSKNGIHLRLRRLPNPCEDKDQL

[3] = Drug metabolism in human liver S9 fraction assessed as compound remaining at 10 uM after 120 mins by LC-MS/MS analysis in presence of NADPH; format: ADME, subcellular; conditions: read-out: Compound recovery
[4] = target: CYP1A1 (Homo sapiens, UniProt P04798); experiment: Activity of human recombinant CYP1A1 assessed as enzyme-mediated drug metabolism at 10 uM after 120 mins by LC-MS/MS analysis in presence of NADPH; format: ADME; conditions: read-out: Compound recovery
Chain of CYP1A1 (P04798 whole entry): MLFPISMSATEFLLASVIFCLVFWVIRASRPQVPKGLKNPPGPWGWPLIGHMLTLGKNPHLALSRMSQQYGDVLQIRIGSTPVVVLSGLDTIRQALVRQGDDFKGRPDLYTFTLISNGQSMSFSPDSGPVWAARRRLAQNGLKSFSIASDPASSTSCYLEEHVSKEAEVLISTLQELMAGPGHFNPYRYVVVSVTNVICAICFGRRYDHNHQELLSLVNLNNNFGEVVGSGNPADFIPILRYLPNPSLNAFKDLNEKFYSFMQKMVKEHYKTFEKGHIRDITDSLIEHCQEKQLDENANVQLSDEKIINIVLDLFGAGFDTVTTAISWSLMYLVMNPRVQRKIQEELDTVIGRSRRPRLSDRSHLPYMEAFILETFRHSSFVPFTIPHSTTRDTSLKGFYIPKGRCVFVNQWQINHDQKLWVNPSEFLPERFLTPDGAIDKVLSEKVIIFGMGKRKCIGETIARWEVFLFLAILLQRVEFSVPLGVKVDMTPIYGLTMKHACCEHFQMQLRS

[5] = test system: Liver microsome; experiment: Drug metabolism in human liver microsomes overexpressing CYP3A4 assessed as (3R,3aS,4S,4aR,7R,8aR,9aR)-7-amino-4-((E)-2-(5-(3-fluorophenyl)pyridin-2-yl)vinyl)-3-methyldecahydronaphtho[2,3-c]furan-1(3H)-one formation at 25 uM after 120 mins by LC-MS/MS analysis in presence of tranylcypromine; format: ADME; conditions: 2 h
[6] = target: Cytochrome P450 3A4 (Homo sapiens, UniProt P08684); experiment: Activity of human recombinant CYP3A4 assessed as enzyme-mediated ((4aR,6R)-9-{2-[(1R,4S)-5-((S)-3-Fluoro-phenyl)-pyridin-2-yl]-vinyl}-1-methyl-3-oxo-dodecahydro-naphtho[2,3-c]furan-6-yl)-carbamic acid(R)-2-hydroxy-ethyl ester formation at 10 uM after 120 mins by LC-MS/MS analysis in presence of astemizole; format: ADME; conditions: 2 h
Chain of Cytochrome P450 3A4 (P08684 whole entry): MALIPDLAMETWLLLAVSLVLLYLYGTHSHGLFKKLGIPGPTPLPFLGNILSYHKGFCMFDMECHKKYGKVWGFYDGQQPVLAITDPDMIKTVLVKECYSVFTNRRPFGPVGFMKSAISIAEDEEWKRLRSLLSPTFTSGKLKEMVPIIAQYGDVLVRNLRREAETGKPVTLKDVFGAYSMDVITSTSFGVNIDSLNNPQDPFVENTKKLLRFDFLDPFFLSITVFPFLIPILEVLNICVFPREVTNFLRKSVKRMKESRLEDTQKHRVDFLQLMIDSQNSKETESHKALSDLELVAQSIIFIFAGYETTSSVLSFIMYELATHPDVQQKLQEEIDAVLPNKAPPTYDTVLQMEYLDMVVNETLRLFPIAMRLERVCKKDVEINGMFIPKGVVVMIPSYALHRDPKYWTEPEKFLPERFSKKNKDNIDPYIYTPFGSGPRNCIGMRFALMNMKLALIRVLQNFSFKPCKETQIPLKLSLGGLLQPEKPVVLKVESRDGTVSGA

[7] = Drug metabolism in human intestine microsomes assessed as 2-hydroxyethyl (1R,3aR,4aR,6R,8aR,9S,9aS)-9-((E)-2-(5-(3-fluorophenyl)pyridin-2-yl)vinyl)-1-methyl-3-oxododecahydronaphtho[2,3-c]furan-6-ylcarbamate formation at 25 uM after 120 mins by LC-MS/MS analysis in presence of NADPH; format: ADME; conditions: 2 h
[8] = target: T2, Cytochrome P450 2B6 (Homo sapiens, UniProt P20813); experiment: Activity of human recombinant CYP2B6 assessed as enzyme-mediated drug metabolism at 10 uM after 120 mins by LC-MS/MS analysis; format: ADME; conditions: 2 h
T2 sequence (P20813 whole entry): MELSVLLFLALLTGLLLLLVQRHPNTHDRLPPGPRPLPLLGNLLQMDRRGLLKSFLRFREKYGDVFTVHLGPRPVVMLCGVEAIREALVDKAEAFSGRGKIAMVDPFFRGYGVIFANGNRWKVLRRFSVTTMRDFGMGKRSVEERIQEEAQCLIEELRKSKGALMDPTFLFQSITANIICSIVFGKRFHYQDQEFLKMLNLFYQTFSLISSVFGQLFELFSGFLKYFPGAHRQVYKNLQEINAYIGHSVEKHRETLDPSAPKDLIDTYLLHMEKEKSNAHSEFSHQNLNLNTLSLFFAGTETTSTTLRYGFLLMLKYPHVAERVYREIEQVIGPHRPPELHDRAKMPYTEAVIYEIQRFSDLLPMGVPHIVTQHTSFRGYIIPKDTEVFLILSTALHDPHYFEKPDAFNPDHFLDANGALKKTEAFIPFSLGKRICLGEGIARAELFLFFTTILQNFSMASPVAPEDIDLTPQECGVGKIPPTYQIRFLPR

[9] = target: T3, Cytochrome P450 1A2 (Homo sapiens, UniProt P05177); experiment: Activity of human recombinant CYP1A2 assessed as enzyme-mediated (3R,3aS,4S,4aR,7R,8aR,9aR)-7-amino-4-((E)-2-(5-(3-fluorophenyl)pyridin-2-yl)vinyl)-3-methyldecahydronaphtho[2,3-c]furan-1(3H)-one formation at 25 uM after 120 mins by LC-MS/MS analysis in presence of NADPH; format: ADME; conditions: 2 h
T3 sequence (P05177 whole entry): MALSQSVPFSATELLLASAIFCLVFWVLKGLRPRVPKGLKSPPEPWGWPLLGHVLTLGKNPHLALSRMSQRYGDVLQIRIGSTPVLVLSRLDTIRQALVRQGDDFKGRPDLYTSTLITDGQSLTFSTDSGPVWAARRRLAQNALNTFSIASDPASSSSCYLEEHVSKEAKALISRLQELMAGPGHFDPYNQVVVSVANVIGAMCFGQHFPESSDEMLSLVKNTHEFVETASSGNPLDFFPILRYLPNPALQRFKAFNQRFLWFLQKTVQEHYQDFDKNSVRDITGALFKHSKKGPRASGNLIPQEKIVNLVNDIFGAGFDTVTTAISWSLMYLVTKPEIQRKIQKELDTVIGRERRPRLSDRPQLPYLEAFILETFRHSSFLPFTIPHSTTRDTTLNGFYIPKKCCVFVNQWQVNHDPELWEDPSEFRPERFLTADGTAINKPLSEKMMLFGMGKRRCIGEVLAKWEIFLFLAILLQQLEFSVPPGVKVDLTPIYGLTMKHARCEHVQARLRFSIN

[10] = target: T3, Cytochrome P450 1A2; experiment: Activity of human recombinant CYP1A2 assessed as enzyme-mediated drug metabolism at 10 uM after 120 mins by LC-MS/MS analysis; format: ADME; conditions: 2 h
[11] = target: T1, Cytochrome P450 2J2; experiment: Activity of human recombinant CYP2J2 assessed as enzyme-mediated 2-hydroxyethyl (1R,3aR,4aR,6R,8aR,9S,9aS)-9-((E)-2-(5-(3-fluorophenyl)pyridin-2-yl)vinyl)-1-methyl-3-oxododecahydronaphtho[2,3-c]furan-6-ylcarbamate formation at 25 uM after 120 mins by LC-MS/MS analysis in presence of NADPH; format: ADME; conditions: 2 h
[12] = target: Cytochrome P450 1B1 (Homo sapiens, UniProt Q16678); experiment: Activity of human recombinant CYP1B1 assessed as enzyme-mediated 2-hydroxyethyl (1R,3aR,4aR,6R,8aR,9S,9aS)-9-((E)-2-(5-(3-fluorophenyl)pyridin-2-yl)vinyl)-1-methyl-3-oxododecahydronaphtho[2,3-c]furan-6-ylcarbamate formation at 25 uM after 120 mins by LC-MS/MS analysis in presence of NADPH; format: ADME; conditions: 2 h
Chain of Cytochrome P450 1B1 (Q16678 whole entry): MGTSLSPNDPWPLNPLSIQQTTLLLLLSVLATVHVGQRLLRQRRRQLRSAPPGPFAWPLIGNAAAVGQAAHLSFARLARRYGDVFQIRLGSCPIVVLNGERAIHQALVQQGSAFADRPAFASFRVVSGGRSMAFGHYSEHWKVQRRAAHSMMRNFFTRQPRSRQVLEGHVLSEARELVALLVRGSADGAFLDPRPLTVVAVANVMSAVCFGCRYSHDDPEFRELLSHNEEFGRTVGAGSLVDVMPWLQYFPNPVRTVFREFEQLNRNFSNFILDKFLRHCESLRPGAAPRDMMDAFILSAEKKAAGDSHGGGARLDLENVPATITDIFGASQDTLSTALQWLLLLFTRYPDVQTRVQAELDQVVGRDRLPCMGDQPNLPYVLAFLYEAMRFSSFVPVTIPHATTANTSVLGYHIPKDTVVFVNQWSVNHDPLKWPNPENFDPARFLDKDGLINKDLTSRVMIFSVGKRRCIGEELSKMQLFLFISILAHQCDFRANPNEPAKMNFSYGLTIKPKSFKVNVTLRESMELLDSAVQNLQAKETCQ

C[C@H]1OC(=O)[C@@H]2C[C@@H]3C[C@H](NC(=O)OCCO)CC[C@H]3[C@H](/C=C/c3ccc(-c4cccc(F)c4)cn3)[C@H]12
Drug metabolism [1]: metabolite_detected | Drug metabolism [2]: metabolite_detected

CCOC(=O)N[C@@H]1CC[C@@H]2[C@@H](C1)C[C@H]1C(=O)O[C@H](C)[C@H]1[C@H]2/C=C/c1ccc(-c2cccc(F)c2)cn1 [VORAPAXAR]
remaining at 2 h, 10 µM [3]: 95.7% | remaining at 2 h, 10 µM [4]: 96.3% | Drug metabolism [5]: metabolite_not_detected | inhibition (INH) [6]: 76% | Drug metabolism [7]: metabolite_detected

CCOC(=O)N[C@@H]1CC[C@@H]2[C@@H](C1)C[C@H]1C(=O)O[C@H](C)[C@H]1[C@H]2/C=[14CH]/c1ccc(-c2cccc(F)c2)cn1
Drug metabolism [8]: metabolite_not_detected | Drug metabolism [9]: metabolite_detected | Drug metabolism [10]: metabolite_not_detected | Drug metabolism [11]: metabolite_detected | Drug metabolism [12]: metabolite_detected
